In patent publication US12533315B2, “Compositions comprising at least one ionic liquid, a polypeptide, and at least one non-ionic surfactant for protein delivery” (PRESIDENT AND FELLOWS OF HARVARD COLLEGE, priority 2019, dated 2026):
Entries after “also recorded” stand apart in the source; their conditions may differ.

Key:
[1] = system: Fab (antihistone H1 antibody fragment; antigen KLH-SSV peptide); assay: Deactivation-preventing effect of polysorbates on Fab in CAGE (1:2) (ELISA); format: biochemical; details: for Fab deactivation-preventing effect, qualitative comparison of polysorbates: 30% and 40% CAGE (1:2), 3% to 10% polysorbate (FIGS. 7A, 7B)
Protocol: Preparation of the Fab-CAGE (1:2)-polysorbate mixed solutions. […] Unlike other polysorbates, polysorbate 60 only is solid at room temperature.
The dialysate was replaced appropriately during the dialysis.
Each experiment was conducted in triplicate.

porcine skin [2] = assay: Porcine skin penetrability test of FITC-labeled Fab, confocal fluorescence microscopy; details: for impact on skin penetration of Fab: 3% polysorbate added to CAGE (1:2); for skin penetration of Fab: 3% polysorbate alone, without CAGE
Protocol: (§1) Preparation of FITC-labeled Fab. The Pierce™ FITC Antibody-Labeling Kit (ThermoFisher Scientific) was used to label Fab purchased from Chemical & Scientific Corporation with FITC. Briefly, 925 μL of sterilized water were added into 75 μL of 0.67 M borate buffer that had been attached to the kit, and the labeling buffer (50 mM sodium borate, pH 8.5) was prepared. Lyophilized Fab, 1 mg, was added into 0.5 mL of the labeling buffer and was then melted. The Fab solution, 0.5 mL, was added into the FITC reagent vial that had been attached to the kit and was then pipetted 10 times for the complete melting of the pigment. After the collection of the slightly centrifuged sample solution in the vial's bottom, the reaction was incubated at room temperature for 60 minutes and under light blocking. At 60 minutes later, the column containing the reaction solution was set to the recovery column that had been attached to the kit. Subsequently, 400 μL of the homogeneously suspended purification column suspension solution were added. After centrifugation (about 1,000 μg, 30 to 45 seconds), FITC-labeled Fab was recovered. The amount of antibody labeling was calculated by measuring absorbance at 280 nm and 495 nm according to the following formulae:
(§2) Preparation of the FITC-labeled Fab-CAGE sample solution. The FITC-Fab solution (50 mM sodium borate, pH 8.5) was mixed with 6 CAGE variants at a volume ratio of 50%/50% (v/v %). Regarding CAGE (1:2), the FITC-Fab solution was mixed at volume ratios of 50%/50% (v/v %), 40%/60% (v/v %), and 30%/70% (v/v %). The mixed solutions were allowed to stand at room temperature for 1 hour. Subsequently, 300 μL of the mixed solutions obtained were used for the porcine skin penetrability test.
(§3) Preparation of the FITC-labeled Fab-CAGE-polysorbate sample solutions. Polysorbates 40 and 60 were mixed with the FITC-labeled Fab solution (50 mM sodium borate, pH 8.5) to obtain the final concentration of 3%. Subsequently, the resulting solutions were mixed with CAGE (1:2) at the volume ratios of 30%/70% (v/v %) [=30% CAGE (1:2)] or 40%/60% (v/v %) [=40% CAGE (1:2)]. Because of its nature of being solid at room temperature, polysorbate 60 was dissolved by 30-minute warming at 37° C. prior to the addition. Furthermore, the solution was warmed for 10 minutes at 37° C. to completely dissolve polysorbate 60 and was then mixed with CAGE (1:2). The resulting mixed solutions were allowed to stand at room temperature for 1 hour. The final concentration of antibodies was adjusted to 10 μg/mL.
(§4) Preparation of the porcine skin. In the porcine skin penetrability test, the cryopreserved skin of a WSP was unfrozen at room temperature. A pair of scissors were used to remove hair on the skin surface, followed by washing of the skin surface with PBS. The WSP skin, with the epidermis side upward, was set to the receiver chamber of a longitudinal diffusion cell (diffusion area: 1.77 cm2). The upper portion of the skin was filled with PBS (0.01% sodium azide). A contact gauge of conductivity was used to confirm skin conductivity at 100 Hz. The WSP skin with a resistivity of ≥5.65 kΩ/cm2 only was used in the porcine skin penetrability test based on previous studies [53,54].
(§5) Skin penetrability test using the porcine skin. The porcine skin was punched in a circle with a 36-mm diameter puncher. Subsequently, the porcine skin, with the epidermis side upward, was set on the receiver chamber of a longitudinal diffusion cell (diffusion area: 1.77 cm2). PBS (0.01% sodium azide, pH 7.4) was added into the interior of the receiver chamber and to the upper portion of the skin via a donor chamber, and the skin was allowed to stand in the incubator at 37° C. for 30 minutes. Meanwhile, the solution of the receiver chamber was stirred gently.

[3] = system: Fab (antihistone H1 antibody fragment; antigen KLH-SSV peptide); details: Fab 10 μg/mL in 10 mM phosphate buffer
Protocol: The Fab solution (10 mM phosphate buffer, pH 7.4) was mixed with CAGE (1:2) at the volume ratios of 50%/50% (v/v %), 40%/60% (v/v %), and 30%/70% (v/v %), and the mixed solutions were allowed to stand at room temperature for 1 hour. The Fab solution was prepared to obtain the final concentration of 10 μg/mL.
The solution was dialyzed with 10 mM phosphate buffer (pH 7.4) used as the dialysate at room temperature for 48 hours. The dialysate was replaced appropriately during the dialysis. At 48 hours later, the solution thus obtained was stored in a refrigerator at 4° C.
ELISA was conducted according to the method of Chiang et al. [51]. Briefly, 2 μg of KLH-SSV peptide (0.1 M sodium bicarbonate-sodium carbonate buffer, pH 9.6±0.2) were instilled into each well, and the solution was allowed to stand overnight at room temperature. After the removal of the KLH-SSV solution and the washing of each well with PBS (0.05% Tween 20®), 300 μL of SuperBlock Blocking Buffer™ in PBS were added into each well, and the solution was allowed to stand for 1 hour at room temperature. […] At 20 minutes later, SpectraMax i3™ (Molecular Devices) was used to measure absorbance at 405 nm. […]

porcine skin [4] = system: porcine skin
Protocol: as §1, §2, §3, §4, §5

polyoxyethylene (20) sorbitan monolaurate [polysorbate 20]
Fab deactivation-prevention effect (preventive effect) ([1]; 3% polysorbate, 40% CAGE (1:2), Fab 10 μg/mL): about 50% | Fab deactivation-prevention effect (preventive effect) ([1]; 5% polysorbate, 30% CAGE (1:2), Fab 10 μg/mL): ~100% | Fab deactivation-prevention effect (preventive effect) ([1]; 8% polysorbate, 30% CAGE (1:2), Fab 10 μg/mL): ~100% | Fab deactivation-prevention effect (preventive effect) ([1]; 10% polysorbate, 30% CAGE (1:2), compared with 5% and 8%): decreased slightly | Fab deactivation-prevention effect (preventive effect) ([1]; 10% polysorbate, 40% CAGE (1:2), compared to 3% polysorbate 20): comparable | Fab deactivation-prevention effect, dependence on polysorbate concentration ([1]; 40% CAGE (1:2), polysorbate above 3%): decreased with increasing polysorbate 20 concentrations | Fab deactivation ([1]; 50% CAGE (1:2), polysorbate concentrations other than 8%): mostly deactivated | Fab deactivation-prevention effect (preventive effect) ([1]; ≥3% (v/v) polysorbate, 30% CAGE (1:2), Fab 10 μg/mL): prevented

polyoxyethylene (20) sorbitan monostearate [polysorbate 60]
impact on skin penetration of Fab (porcine skin [2]): do not adversely impact skin penetration of Fab | skin penetration of Fab (porcine skin [2]): did not induce skin penetration of Fab | skin penetration of FITC-labeled Fab (porcine skin [2]; 30% CAGE + 3% polysorbate 60 versus 30% CAGE alone): Comparable skin penetration | Fab deactivation-prevention effect (preventive effect) ([1]; 3% polysorbate, 30% CAGE (1:2), Fab 10 μg/mL): > 80% | Fab deactivation-preventing effect, qualitative comparison of polysorbates [1]: equivalent; also recorded: more effective; also recorded: most potent

polyoxyethylene (20) sorbitan monooleate [polysorbate 80]
Fab deactivation-preventing effect, qualitative comparison of polysorbates [1]: needs to be at a higher concentration compared to polysorbate 40 and polysorbate 60

Choline And GEranate [CAGE (1:2)]
Fab deactivation, dependence on CAGE (1:2) concentration [3]: deactivated in a concentration dependent manner | ELISA signal (absorbance of undialyzed aqueous Fab solution = 100%) ([3]; ≥5% CAGE (1:2), 1 hour room temperature, CAGE removed by dialysis): about 5% | penetration of Fab into skin in vitro (porcine skin [4]): deep penetration into skin | skin penetration-enhancing effect of Fab (porcine skin [4]): most potent

polyoxyethylene (20) sorbitan monopalmitate [polysorbate 40]
impact on skin penetration of Fab (porcine skin [2]): do not adversely impact skin penetration of Fab | skin penetration of Fab (porcine skin [2]): did not impact skin penetration of the Fab | Fab deactivation-preventing effect, qualitative comparison of polysorbates [1]: prevented Fab deactivation at a lower concentration than did polysorbate 20; also recorded: equivalent; also recorded: more effective; also recorded: most potent
